From PubChem BioAssay (NCI)
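Step 1: Grow cells in 96-well plates. Step 2: Expose to compound for 48 hours at 5 concentrations. Step 3: Interpolate endpoints linearly; if unreached, use highest concentration. The concentration for 50% growth inhibition is given as GI50. At the TGI there is no net growth.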

What was measured:
Experiment in all cases: growth of human tumour cells (NCI), 48 h
SK-MEL-28 melanoma = test system: SK-MEL-28 melanoma
K-562 leukemia = test system: K-562 leukemia
IGROV1 ovarian = test system: IGROV1 ovarian
KM12 colon = test system: KM12 colon
786-0 renal = test system: 786-0 renal
MDA-N = test system: MDA-N
UO-31 renal = test system: UO-31 renal
OVCAR-8 ovarian = test system: OVCAR-8 ovarian
COLO 205 colon = test system: COLO 205 colon
MDA-MB-435 = test system: MDA-MB-435
NCI/ADR-RES ovarian = test system: NCI/ADR-RES ovarian
PC-3 prostate = test system: PC-3 prostate
SN12C renal = test system: SN12C renal
HCT-116 colon = test system: HCT-116 colon
SW-620 colon = test system: SW-620 colon
OVCAR-5 ovarian = test system: OVCAR-5 ovarian
CAKI-1 renal = test system: CAKI-1 renal
MDA-MB-231 breast = test system: MDA-MB-231 breast
MCF7 breast = test system: MCF7 breast
A549 NSCLC = test system: A549 NSCLC
HS 578T breast = test system: HS 578T breast
UACC-257 melanoma = test system: UACC-257 melanoma
TK-10 renal = test system: TK-10 renal
LOX IMVI melanoma = test system: LOX IMVI melanoma
SK-MEL-2 melanoma = test system: SK-MEL-2 melanoma
HCC-2998 colon = test system: HCC-2998 colon
SF-295 CNS = test system: SF-295 CNS
CCRF-CEM leukemia = test system: CCRF-CEM leukemia
NCI-H522 lung = test system: NCI-H522 lung
ACHN renal = test system: ACHN renal
HCT-15 colon = test system: HCT-15 colon
NCI-H460 lung = test system: NCI-H460 lung
NCI-H23 lung = test system: NCI-H23 lung
SF-268 CNS = test system: SF-268 CNS
OVCAR-3 ovarian = test system: OVCAR-3 ovarian
RPMI-8226 leukemia = test system: RPMI-8226 leukemia
EKVX NSCLC = test system: EKVX NSCLC
SNB-19 CNS = test system: SNB-19 CNS
NCI-H226 lung = test system: NCI-H226 lung
SNB-75 CNS = test system: SNB-75 CNS
SF-539 CNS = test system: SF-539 CNS
MOLT-4 leukemia = test system: MOLT-4 leukemia
HT29 colon = test system: HT29 colon
M14 melanoma = test system: M14 melanoma
SK-MEL-5 melanoma = test system: SK-MEL-5 melanoma
DU-145 prostate = test system: DU-145 prostate
HOP-92 NSCLC = test system: HOP-92 NSCLC
MALME-3M melanoma = test system: MALME-3M melanoma
OVCAR-4 ovarian = test system: OVCAR-4 ovarian
HOP-62 NSCLC = test system: HOP-62 NSCLC
U251 CNS = test system: U251 CNS
RXF 393 renal = test system: RXF 393 renal
SK-OV-3 ovarian = test system: SK-OV-3 ovarian
SR leukemia = test system: SR leukemia
BT-549 breast = test system: BT-549 breast
UACC-62 melanoma = test system: UACC-62 melanoma
HL-60(TB) leukemia = test system: HL-60(TB) leukemia
A498 renal = test system: A498 renal
T-47D breast = test system: T-47D breast

SMILES: CC[C@H](CC[C@@H](C)[C@H]1CC[C@H]2[C@@H]3CC=C4C[C@@H](O)CC[C@]4(C)[C@H]3CC[C@]12C)C(C)C
- TGI (SK-MEL-28 melanoma): > 100 µM
- TGI (K-562 leukemia): > 100 µM
- TGI (IGROV1 ovarian): > 100 µM
- TGI (KM12 colon): > 100 µM
- TGI (786-0 renal): > 100 µM
- TGI (MDA-N): > 100 µM
- TGI (UO-31 renal): > 100 µM
- TGI (OVCAR-8 ovarian): > 100 µM
- TGI (COLO 205 colon): > 100 µM
- TGI (MDA-MB-435): > 100 µM
- TGI (NCI/ADR-RES ovarian): > 100 µM
- TGI (PC-3 prostate): > 100 µM
- TGI (SN12C renal): > 100 µM
- TGI (HCT-116 colon): > 100 µM
- TGI (SW-620 colon): > 100 µM
- TGI (OVCAR-5 ovarian): > 100 µM
- TGI (CAKI-1 renal): > 100 µM
- TGI (MDA-MB-231 breast): > 100 µM
- TGI (MCF7 breast): > 100 µM
- TGI (A549 NSCLC): > 100 µM
- TGI (HS 578T breast): > 100 µM
- TGI (UACC-257 melanoma): > 100 µM
- TGI (TK-10 renal): > 100 µM
- TGI (LOX IMVI melanoma): > 100 µM
- TGI (SK-MEL-2 melanoma): > 100 µM
- TGI (HCC-2998 colon): > 100 µM
- TGI (SF-295 CNS): > 100 µM
- TGI (CCRF-CEM leukemia): > 100 µM
- TGI (NCI-H522 lung): > 100 µM
- TGI (ACHN renal): > 100 µM
- TGI (HCT-15 colon): > 100 µM
- TGI (NCI-H460 lung): > 100 µM
- TGI (NCI-H23 lung): > 100 µM
- TGI (SF-268 CNS): > 100 µM
- TGI (OVCAR-3 ovarian): > 100 µM
- TGI (RPMI-8226 leukemia): > 100 µM
- TGI (EKVX NSCLC): > 100 µM
- TGI (SNB-19 CNS): > 100 µM
- TGI (NCI-H226 lung): > 100 µM
- TGI (SNB-75 CNS): > 100 µM
- TGI (SF-539 CNS): > 100 µM
- TGI (MOLT-4 leukemia): > 100 µM
- TGI (HT29 colon): > 100 µM
- TGI (M14 melanoma): > 100 µM
- TGI (SK-MEL-5 melanoma): > 100 µM
- TGI (DU-145 prostate): > 100 µM
- TGI (HOP-92 NSCLC): > 100 µM
- TGI (MALME-3M melanoma): > 100 µM
- TGI (OVCAR-4 ovarian): > 100 µM
- TGI (HOP-62 NSCLC): > 100 µM
- TGI (U251 CNS): > 100 µM

SMILES: COc1ccc(OC)c(Nc2nc3ccccc3c3c2-c2ccc(OC)cc2C3=O)c1
- GI50 (SK-MEL-28 melanoma): > 100 µM
- TGI (SK-MEL-28 melanoma): > 100 µM
- GI50 (K-562 leukemia): > 100 µM
- TGI (K-562 leukemia): > 100 µM
- GI50 (IGROV1 ovarian): > 100 µM
- TGI (IGROV1 ovarian): > 100 µM
- GI50 (KM12 colon): > 100 µM
- TGI (KM12 colon): > 100 µM
- GI50 (786-0 renal): > 100 µM
- TGI (786-0 renal): > 100 µM
- GI50 (UO-31 renal): > 100 µM
- TGI (UO-31 renal): > 100 µM
- GI50 (OVCAR-8 ovarian): > 100 µM
- TGI (OVCAR-8 ovarian): > 100 µM
- GI50 (COLO 205 colon): > 100 µM
- TGI (COLO 205 colon): > 100 µM
- GI50 (MDA-MB-435): > 100 µM
- TGI (MDA-MB-435): > 100 µM
- GI50 (RXF 393 renal): > 100 µM
- TGI (RXF 393 renal): > 100 µM
- GI50 (NCI/ADR-RES ovarian): > 100 µM
- TGI (NCI/ADR-RES ovarian): > 100 µM
- GI50 (SK-OV-3 ovarian): > 100 µM
- TGI (SK-OV-3 ovarian): > 100 µM
- GI50 (PC-3 prostate): > 100 µM
- TGI (PC-3 prostate): > 100 µM
- GI50 (SN12C renal): > 100 µM
- TGI (SN12C renal): > 100 µM
- GI50 (HCT-116 colon): > 100 µM
- TGI (HCT-116 colon): > 100 µM
- GI50 (SW-620 colon): > 100 µM
- TGI (SW-620 colon): > 100 µM
- GI50 (SR leukemia): 40.7 µM
- TGI (SR leukemia): > 100 µM
- GI50 (OVCAR-5 ovarian): > 100 µM
- TGI (OVCAR-5 ovarian): > 100 µM
- GI50 (CAKI-1 renal): > 100 µM
- TGI (CAKI-1 renal): > 100 µM
- GI50 (MDA-MB-231 breast): > 100 µM
- TGI (MDA-MB-231 breast): > 100 µM
- GI50 (MCF7 breast): > 100 µM
- TGI (MCF7 breast): > 100 µM
- GI50 (A549 NSCLC): > 100 µM
- TGI (A549 NSCLC): > 100 µM
- GI50 (HS 578T breast): > 100 µM
- TGI (HS 578T breast): > 100 µM
- GI50 (UACC-257 melanoma): > 100 µM
- TGI (UACC-257 melanoma): > 100 µM
- GI50 (TK-10 renal): > 100 µM
- TGI (TK-10 renal): > 100 µM
- GI50 (LOX IMVI melanoma): > 100 µM
- TGI (LOX IMVI melanoma): > 100 µM
- GI50 (SK-MEL-2 melanoma): > 100 µM
- TGI (SK-MEL-2 melanoma): > 100 µM
- GI50 (HCC-2998 colon): > 100 µM
- TGI (HCC-2998 colon): > 100 µM
- GI50 (SF-295 CNS): > 100 µM
- TGI (SF-295 CNS): > 100 µM
- GI50 (CCRF-CEM leukemia): > 100 µM
- TGI (CCRF-CEM leukemia): > 100 µM
- GI50 (NCI-H522 lung): > 100 µM
- TGI (NCI-H522 lung): > 100 µM
- GI50 (ACHN renal): > 100 µM
- TGI (ACHN renal): > 100 µM
- GI50 (BT-549 breast): > 100 µM
- TGI (BT-549 breast): > 100 µM
- GI50 (HCT-15 colon): > 100 µM
- TGI (HCT-15 colon): > 100 µM
- GI50 (NCI-H460 lung): > 100 µM
- TGI (NCI-H460 lung): > 100 µM
- GI50 (NCI-H23 lung): > 100 µM
- TGI (NCI-H23 lung): > 100 µM
- GI50 (SF-268 CNS): > 100 µM
- TGI (SF-268 CNS): > 100 µM
- GI50 (UACC-62 melanoma): > 100 µM
- TGI (UACC-62 melanoma): > 100 µM
- GI50 (OVCAR-3 ovarian): > 100 µM
- TGI (OVCAR-3 ovarian): > 100 µM
- GI50 (RPMI-8226 leukemia): > 100 µM
- TGI (RPMI-8226 leukemia): > 100 µM
- GI50 (EKVX NSCLC): > 100 µM
- TGI (EKVX NSCLC): > 100 µM
- GI50 (HL-60(TB) leukemia): > 100 µM
- TGI (HL-60(TB) leukemia): > 100 µM
- GI50 (SNB-19 CNS): > 100 µM
- TGI (SNB-19 CNS): > 100 µM
- GI50 (A498 renal): > 100 µM
- TGI (A498 renal): > 100 µM
- GI50 (NCI-H226 lung): > 100 µM
- TGI (NCI-H226 lung): > 100 µM
- GI50 (SNB-75 CNS): > 100 µM
- TGI (SNB-75 CNS): > 100 µM
- GI50 (SF-539 CNS): > 100 µM
- TGI (SF-539 CNS): > 100 µM
- GI50 (MOLT-4 leukemia): > 100 µM
- TGI (MOLT-4 leukemia): > 100 µM
- GI50 (HT29 colon): > 100 µM
- TGI (HT29 colon): > 100 µM
- GI50 (M14 melanoma): > 100 µM
- TGI (M14 melanoma): > 100 µM
- GI50 (SK-MEL-5 melanoma): > 100 µM
- TGI (SK-MEL-5 melanoma): > 100 µM
- GI50 (DU-145 prostate): > 100 µM
- TGI (DU-145 prostate): > 100 µM
- GI50 (HOP-92 NSCLC): > 100 µM
- TGI (HOP-92 NSCLC): > 100 µM
- GI50 (T-47D breast): > 100 µM
- TGI (T-47D breast): > 100 µM
- GI50 (MALME-3M melanoma): > 100 µM
- TGI (MALME-3M melanoma): > 100 µM
- GI50 (OVCAR-4 ovarian): > 100 µM
- TGI (OVCAR-4 ovarian): > 100 µM
- GI50 (HOP-62 NSCLC): > 100 µM
- TGI (HOP-62 NSCLC): > 100 µM
- GI50 (U251 CNS): > 100 µM
- TGI (U251 CNS): > 100 µM
